From ChEMBL document CHEMBL4376876 (J Med Chem, 2020)

System: Mycobacterium tuberculosis
Assay: Resistance factor, ratio of MIC for antimycobacterial activity against Mycobacterium tuberculosis H37Rv over expressing InhA to MIC for antimycobacterial activity against Mycobacterium tuberculosis H37Rv transfected with pMV261 empty vector
Type: functional

For CC(C)[C@H]1OC(=O)[C@H](C)[C@H](O)[C@H](Cc2cccnc2)NC(=O)[C@@H](NC(=O)c2ncccc2O)[C@@H](C)OC1=O, the Ratio was 8.
With CC[C@H]1OC(=O)[C@H](C)[C@H](O)[C@H](Cc2cccnc2)NC(=O)[C@@H](NC(=O)c2ncccc2O)[C@@H](C)OC1=O the Ratio was >4.
With C[C@H]1OC(=O)[C@@H](Cc2ccccc2)OC(=O)[C@H](C)[C@H](O)[C@H](Cc2cccnc2)NC(=O)[C@H]1NC(=O)c1ncccc1O the Ratio was >4.
For CC[C@H](C)[C@H]1OC(=O)[C@H](C)[C@H](O)[C@H](Cc2cccnc2)NC(=O)[C@@H](NC(=O)c2ncccc2O)[C@@H](C)OC1=O, the Ratio was 1.
Work on NNC(=O)c1ccncc1 [ISONIAZID] yielded a Ratio of 31.
